# Laboratory results reported in US8215314B2, “Photochemical tissue bonding” (The General Hospital Corporation, priority 2000, dated 2012).
# “Also recorded” adds a separate entry of the source.
# Assays:
# [1] = Absorption maxima and absorption coefficients of photosensitizers; assay type: physicochemical
# Description: The photosensitizers were used as received with the exception of N-HPT which was recrystallized twice from aqueous ethanol before use.
# bovine achilles tendons = test: PTB of ruptured bovine achilles tendons in vitro, ultimate stress and stiffness; conditions: for Mean change in stiffness % (95% CI) / Mean change in ultimate stress % (95% CI): relative to healthy tendon
# Description: To test the ability of PTB to quickly and effectively bond ruptured tendons, an in vitro model utilizing bovine tendons was developed. The use of bovine models in wound healing is well known by those skilled in the art. The similarities between bovine wound healing and that of humans enables one to extrapolate the therapeutic results obtained in a bovine model system to a therapeutic result in humans.
# Fresh bovine achilles tendons were obtained and stored at […] until use. The tendon was cut into dumbbell-shaped 5 cm strips with the central 3 cm strip at an approximate cross-sectional area of 1 mm by 1 mm, and were irrigated constantly with phosphate buffered saline (PBS) to prevent desiccation.
# Rupture of the tendon was induced by weakening the central 1 cm of the tendon with a surgical blade and mechanically pulling it apart. A solution of Rose Bengal at various concentrations (0.1, 0.5 and 1.0% weight per volume in PBS) was applied to the ends of the ruptured tendons for two minutes, after which the ruptured ends were approximated and the excess dye was removed.
# The ruptured ends of the tendon were crossed over each other with an overlap of approximately 1 cm before being wrapped by several layers of tissue paper. The tissue wrapped tendon was rolled and pressed in order to approximate the ruptured ends and remove the excess dye. The tissue paper was carefully removed before the tendon was placed between two glass slides that were then clipped together.
# The center of the approximated tendon was irradiated with an argon laser (514 nm), having a spot size of 1 cm in diameter, which was transmitted through an optic fiber. The laser was applied with an irradiance of 0.5, 1.0, or 1.5 W/cm^2, while the fluence of laser energy applied was 125, 250, 500, or 750 J/cm^2. The exposure time ranged from 1 min and 23 seconds to 25 minutes.
# Control tendons were ruptured in the same manner, however treatments consisted of application of Rose Bengal and approximation of the tendon ends without laser irradation, approximation of the tendon ends with laser irradiation but no exposure to rose bengal, and approximation of the ends with no further treatment.
# To test the effectiveness of the photochemical tissue bonding, immediately after photochemical tissue bonding, the tendon strips were attached to the fixture of a tensiometer, which was coupled to a force transducer (FIG. 17). The tendon was held at a straight and vertical position, and cyclic loading of the tendon was conducted by stretching the tendon for a magnitude of 0.5 mm for 6 cycles. The tendon was brought back to a zero deflection position before being pulled to failure at a constant speed of 100 mm/min. The peak force needed to rupture the tendon was recorded, and a typical force-deflection curve was obtained (FIG. 18). The ultimate stress and stiffness (peak force for tendon rupture normalized by the cross-sectional area, and slope of the linear region of the force-deflection curve, respectively) were calculated from the force-deflection curve.
# Healthy tendons were also placed in the tensiometer, and were pulled to the point of failure. Following failure, they were treated with photochemical tissue bonding at 500 J/cm^2 fluence and again pulled to failure to study the percentage of recovery of mechanical properties. Immediately after the photochemical tissue bonding, the ultimate stress and the stiffness returned to approximately 59.66% and 52.75% of the healthy tendon, respectively (Table 1).
# [2] = test system: epidermal cells of skin grafts; test: Trypan blue exclusion assay of epidermal cells from skin grafts after PTB; assay type: cell-based, mini pigs; conditions: 0.1% RB
# Description: The cell viability in the skin grafts was further assessed quantitatively by trypan blue exclusion assay. The upper grafts were chosen to be examined because they absorbed more light, and therefore would be damaged to a greater extent, if any, than the lower ones. Following irradiation, the upper skin grafts were incubated with 1 mg/ml dispase (Life Technologies, Rockville, Md.) in PBS overnight at 4° C. The epidermis was gently peeled off from the dermis and washed twice in PBS. Epidermal cells were released by incubating the epidermis with 0.25% trypsin-EDTA (Cellgro) at 37° C. for 15 minutes, accompanied by gentle agitation. Fetal calf serum (FCS) was added to inhibit trypsin activity and the cell suspension was then centrifuged at 2500 rpm for 10 mins. The cell pellet was washed once and re-suspended in PBS. The trypan blue exclusion assay was performed after mixing equal volumes of cell suspension and 0.2% (w/v) trypan blue and loading onto a hemocytometer. The number of viable cells released from each skin graft was calculated. After preparing a single cell suspension from intact epidermis, the cell viability was assessed (FIG. 11).
# [3] = test system: bovine tendon / NeuraGen collagen conduit interface; test: Tensile strength of PTB bond between NeuraGen conduit and bovine tendon; conditions: RB dye, 532 nm, fluence of 150-300 Joules, 0.25 cm^2 interface
# Description: Additional experiments were also performed to determine the effectiveness of PTB bonding between the NeuraGen™ conduits and an animal tissue, namely bovine tendon tissue. To do this, the tensile strength of a PTB bond formed between the bovine tendon and a segment of Neuregen™ conduit was tested, using various different photoactive dyes. Both the tendon surface and the inner surface of a piece of conduit were coated with RB dye and allowed to sit in the dark for 60 seconds. The two surfaces were then thoroughly dried and pressed together to form a tendon/conduit interface of approximately 0.25 cm^2. The construct was irradiated at 532 nm through the conduit toward the tendon/conduit interface at various fluence levels (Joules). Constructs were then pulled into tension using a tensiometer until the bond between the tendon and the conduit broke. The breaking force was measured in Newtons.
# esophageal keratinocytes = test: NADH-diaphorase viability of esophageal keratinocytes after PTB; assay type: cell-based
# Description: The viability of the photoactivated cells was also assessed. Nicotinamide adenine dinucleotide (NADH-diaphorase) staining was carried out based on the methods described by Heisterkamp J et al. (1999) Lasers Sug Med 25(3): 257-62 and Neumann R A et al. (1991) J Am Acad Dermatol 25: 991-8. Following irradiation, the keratinocyte layer was gently peeled away from the collagen gel and was exposed overnight to an incubation solution consisting of nicotinamide adenine dinucleotide (NADH) and nitroblue tetrazolium chloride (NBT) (Sigma). The viability of the cells was indicated by the formation of a water-insoluble blue precipitate (diformazan), which corresponded to areas with NADH-diaphorase activity. The insoluble blue precipitate was dissolved in DMSO (an organic solvent) and quantified by measuring the optical density (OD) at 550 nm against a commercially available standard. The negative control, RB control, and the laser control composites were also tested using identical conditions. It was determined for the negative control, RB control, laser control, 50 J/cm^2 composite sample, and the 100 J/cm^2 composite sample that the levels of corresponding blue precipitate were 143, 151, 158, 173 and 158 diformazan/nM after photochemical tissue bonding treatment (FIG. 16).
# [4] = argon laser 514 nm and Rose Bengal
# [5] = higher Rose Bengal concentrations (0.0, 0.1, 0.5, 1.0% w/v in PBS)
structure (smiles),measurement,setting,value
O=C([O-])c1c(Cl)c(Cl)c(Cl)c(Cl)c1-c1c2cc(I)c(=O)c(I)c-2oc2c(I)c([O-])c(I)cc12.[Na+].[Na+] [Rose Bengal],absorption maximum,[1],550 nm
same,absorption coefficient at the laser wavelength used,"[1]; RB at 514 nm, Fl at 488 nm, MB at 661 nm, R-5-P at 488 nm, N-HPT at 351 nm",33000 dm^3 mol^−1 cm^−1
same,dehydration of the tendon,bovine achilles tendons; 1.0% Rose Bengal,dehydration of the tendon was noticed
same,Mean change in stiffness % (95% CI),"bovine achilles tendons; Dye control (dye, no laser)","20.65 (10.16, 31.14) %"
same,Mean change in ultimate stress % (95% CI),"bovine achilles tendons; Dye control (dye, no laser)","24.18 (6.57, 41.79) %"
same,Mean change in stiffness % (95% CI),"bovine achilles tendons; Laser + Dye, 500 J/cm^2","52.75 (24.05, 81.45) %"
same,Mean change in ultimate stress % (95% CI),"bovine achilles tendons; Laser + Dye, 500 J/cm^2","59.66 (8.71, 110.61) %"
same,stiffness of ruptured tendon vs controls,bovine achilles tendons; [4],significantly increased; also recorded: significant increase
same,ultimate stress of ruptured tendon vs controls,bovine achilles tendons; [4],significantly increased; also recorded: significant increase
same,stiffness of ruptured tendon,bovine achilles tendons; [5],significant increase
same,ultimate stress of ruptured tendon,bovine achilles tendons; [5],significant increase
same,number of viable cells per skin graft vs control,"[2]; 0.56 W/cm^2, 126, 252 and 504 J/cm^2",not significantly different
same,number of viable cells relative to control group,[2]; 504 J/cm^2,~80%
same,bond between tendon and conduit (breaking force),[3],effective bond was formed
same,level of blue precipitate (NADH-diaphorase viability),"esophageal keratinocytes; 0.1% RB, 50 J/cm^2",173 diformazan/nM
same,level of blue precipitate (NADH-diaphorase viability),"esophageal keratinocytes; 0.1% RB, 100 J/cm^2",158 diformazan/nM
same,level of blue precipitate (NADH-diaphorase viability),"esophageal keratinocytes; RB control: RB treated, nonirradiated",151 diformazan/nM
